Source: article PMC7807051, “Modulation of cAMP metabolism for CFTR potentiation in human airway epithelial cells” (Scientific Reports, 2021)
Read-outs that look alike come from different tables or passages of the source.

Experiments:
CFTR [1] = experiment: In vitro CFTR membrane potential assay in Calu-3 cells; type: cell-based, human; conditions: for EC50: Calu-3 cells, cAMP inducer alone
Procedure: (§1) An in vitro CFTR membrane potential assay was performed on Calu-3 cells and primary human bronchial epithelial cells, from two independent donors, cultured at 37 °C as previously described. All human samples were collected from consented individuals under ethics approval granted by Hamilton Integrated Research Ethics Board (Project Number 5099-T).
Calu-3 cells were grown for 21 days on 96-well plates and primary HBECs were grown for 14 days under air–liquid interface conditions on collagen-coated (Sigma-Aldrich) 6.5 mm Transwell Inserts (Corning). All cells were washed with HBSS prior to experimental conditions. After washing with HBSS, cells were loaded with BLUE Membrane Potential Dye (Molecular Devices, #R8042) dissolved in 37 °C chloride-free buffer (NMDG Gluconate Buffer – 150 mM NMDG-gluconate, 3 mM KCl, 10 mM HEPES, pH 7.35, 300 mOsm). Immediately after dye loading, CFTR activity measurements were taken. CFTR activity measurements are fluorescent readouts for detecting ion channel activity. CFTR inhibition was performed with CFTRinh-172 (10 μM) for all experiments to attribute changes in fluorescence as CFTR channel activity. This assay has been validated using proof of concept studies where results obtained from this assay were able to recapitulate findings obtained from direct measurements of ion channel activity using Ussing chambers. At the end of this assay, raw data was exported for statistical analysis.
For Calu-3 cells, measurements were taken during baseline (40 min), cAMP elevation (30 min), and CFTR inhibition (20 min). cAMP elevation was performed using forskolin or isoproterenol (0.0005–50 μM). For assays with ABCC4 or PDE-4 inhibitors, a pre-incubation with the inhibitors (30 min) in the plate reader was performed prior to cAMP elevation. CFTR modulator VX-770 was used at 1 μM. CFTR activity was determined by dividing a single membrane potential peak measurement after the ABCC4 or PDE-4 inhibition and cAMP elevation additions to the stabilized baseline over DMSO control.
For in vitro CFTR membrane potential assays, in Calu-3 cells, values were normalized to the averaged baseline over averaged vehicle (DMSO) control of all biological replicates. SD was calculated using data from biological replicates (n = 4–8). An area under the curve (AUC), half-maximal concentration (EC50), […] (Emax), and baseline analysis was performed for each individual replicate then averaged together. The AUC analysis is an aggregate measure of sensitivity and maximal response, allowing for the observation of the total net responsiveness of the cells. The AUC analysis was done by normalizing the individual replicates to the bottom most value of the averaged vehicle control. In primary HBECs, six independent measurements were taken within a single Transwell insert. The value is the average of at least six measurements. These values were normalized to the averaged baseline over the averaged vehicle (DMSO) control. SD was calculated by treating the six measurements as independent, with additional technical replicates (n = 6–18). An AUC and max peak analysis were performed for each measurement, then averaged together. The max peak analysis was the max CFTR activity achieved during the drug addition step.
In order to compare the independent experiments performed, a fold-change analysis using individual AUC, EC50, and Emax, determined from their respective concentration–response curves, was performed and was normalized to the averaged DMSO vehicle control. A one-way ANOVA with subsequent post-hoc test or a paired t-test was performed. Statistical analysis was performed using GraphPad Prism 6.

ABCC4 [2] = target: T1, ABCC4 (Homo sapiens, UniProt O15439); experiment: In vitro extracellular cAMP assay of ABCC4 inhibitors in Calu-3 cells; type: cell-based; conditions: IBMX 20 μM pre-treatment, forskolin 10 μM, normalized to IBMX + forskolin, read-out: half maximal inhibitory concentration (IC50), extracellular cAMP
T1 construct: ABCC4 was present in both HBEC6-KT and Calu-3 cells at all-time points, indicated by the bands present at 150 kDa; endogenous in cells; host or cells: HBEC6-KT (immortalized human bronchial epithelial cells)
T1 sequence (O15439 1-1325): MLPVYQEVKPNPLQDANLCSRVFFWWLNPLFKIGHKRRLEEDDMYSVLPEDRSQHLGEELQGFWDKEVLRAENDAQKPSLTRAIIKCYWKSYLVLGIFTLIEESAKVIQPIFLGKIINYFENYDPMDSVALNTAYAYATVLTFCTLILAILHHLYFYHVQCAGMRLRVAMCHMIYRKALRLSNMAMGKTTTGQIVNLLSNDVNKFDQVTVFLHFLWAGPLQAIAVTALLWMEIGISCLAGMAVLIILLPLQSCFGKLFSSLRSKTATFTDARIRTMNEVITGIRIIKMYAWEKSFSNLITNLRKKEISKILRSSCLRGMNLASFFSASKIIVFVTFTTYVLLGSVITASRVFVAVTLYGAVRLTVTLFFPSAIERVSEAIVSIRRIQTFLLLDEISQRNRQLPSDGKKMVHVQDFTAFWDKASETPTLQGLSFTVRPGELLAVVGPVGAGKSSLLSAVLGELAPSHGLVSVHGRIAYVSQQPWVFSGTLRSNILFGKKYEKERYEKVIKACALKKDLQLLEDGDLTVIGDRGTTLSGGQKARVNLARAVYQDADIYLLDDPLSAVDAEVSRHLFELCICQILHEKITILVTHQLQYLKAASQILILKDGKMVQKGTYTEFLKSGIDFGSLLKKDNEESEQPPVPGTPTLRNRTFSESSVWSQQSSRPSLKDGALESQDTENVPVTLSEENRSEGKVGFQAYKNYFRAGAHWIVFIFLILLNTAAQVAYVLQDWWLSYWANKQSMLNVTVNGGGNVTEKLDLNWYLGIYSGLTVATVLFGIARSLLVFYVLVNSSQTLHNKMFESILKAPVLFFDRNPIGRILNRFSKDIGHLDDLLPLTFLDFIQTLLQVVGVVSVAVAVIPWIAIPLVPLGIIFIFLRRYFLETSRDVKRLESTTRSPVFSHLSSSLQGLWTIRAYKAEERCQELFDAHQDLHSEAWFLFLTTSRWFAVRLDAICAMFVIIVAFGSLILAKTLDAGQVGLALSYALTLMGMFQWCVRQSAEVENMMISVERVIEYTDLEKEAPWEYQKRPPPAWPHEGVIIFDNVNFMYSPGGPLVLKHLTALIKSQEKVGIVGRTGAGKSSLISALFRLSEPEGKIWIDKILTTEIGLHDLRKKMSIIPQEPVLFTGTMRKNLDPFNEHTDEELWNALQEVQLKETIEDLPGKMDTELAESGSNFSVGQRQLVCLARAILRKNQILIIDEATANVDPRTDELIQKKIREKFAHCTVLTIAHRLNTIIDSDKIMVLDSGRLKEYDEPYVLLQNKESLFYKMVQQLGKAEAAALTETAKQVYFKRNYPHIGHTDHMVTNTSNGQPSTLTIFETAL
Procedure: Cell culture supernatants were assessed for cAMP levels 24 h post-treatment.
(§2) Cells were pretreated with IBMX (20 μM) for 2 h prior to experimental conditions. After the pre-treatment of IBMX, cells were treated with ABCC4 inhibitors (0.01–100 μM) or DMSO for 30 min. Following these exposures, the cells were treated with forskolin (10 μM) for 6 h and cell-culture supernatants were collected for analysis of extracellular cAMP. The negative control was IBMX alone and the positive control was IBMX and forskolin.
(§3) For the in vitro extracellular cAMP assay, values were normalized to the positive control (IBMX and forskolin) and the half maximal inhibitory concentration (IC50) was determined. SD was calculated using data from biological replicates (n = 4–5).

ABCC4 [3] = target: T1, ABCC4; experiment: In vitro extracellular cAMP assay of ABCC4 inhibitors in HBEC6-KT cells; type: cell-based; conditions: IBMX 20 μM pre-treatment, forskolin 10 μM, normalized to IBMX + forskolin, read-out: half maximal inhibitory concentration (IC50), extracellular cAMP
Procedure: as §2, §3
Cell culture supernatants were assessed for cAMP levels 24h post-treatment.

CFTR [4] = tested on: CFTR; parameters: method as in PMID 24106801; conditions: primary non-CF HBECs; cited from earlier work
CFTR [5] = tested on: CFTR; parameters: method as in PMID 24106801; conditions: Calu-3 cells; cited from earlier work
CFTR [6] = target: T2, CFTR (Homo sapiens, UniProt P13569); experiment: In vitro CFTR membrane potential assay in primary human bronchial epithelial cells (air–liquid interface); type: cell-based; conditions: primary HBECs, one donor sample; forskolin 10 μM; VX-770 1 μM, MK-571 1.8 μM, Roflumilast 1 μM
T2 construct: endogenous in cells; host or cells: primary human bronchial epithelial cells from two donors, air–liquid interface
Procedure: as §1
Calu-3 cells were grown for 21 days on 96-well plates and primary HBECs were grown for 14 days under air–liquid interface conditions on collagen-coated (Sigma-Aldrich) 6.5 mm Transwell Inserts (Corning). All cells were washed with HBSS prior to experimental conditions. […] CFTR activity measurements are fluorescent readouts for detecting ion channel activity. CFTR inhibition was performed with CFTRinh-172 (10 μM) for all experiments to attribute changes in fluorescence as CFTR channel activity. […]
For primary HBECs, measurements were taken during baseline (8 min), drug additions (40 min), and CFTR inhibitions (18 min). cAMP elevation was performed using forskolin (10 μM). […] CFTR activity was determined by averaging six independent measurements within a single Transwell insert. […]
For in vitro CFTR membrane potential assays, in Calu-3 cells, values were normalized to the averaged baseline over averaged vehicle (DMSO) control of all biological replicates. SD was calculated using data from biological replicates (n = 4–8). […]

[7] = Calu-3, forskolin (FSK) curve with agent vs DMSO control
[8] = Calu-3, forskolin (FSK) curve with agent vs DMSO control, VX-770 1 μM, MK-571 1.8 μM, Ceefourin-1 4.8 μM, Roflumilast 1 μM, Rolipram 10 μM, IBMX 100 μM
[9] = Calu-3, isoproterenol (ISO) curve with agent vs DMSO control
[10] = Calu-3, isoproterenol (ISO) curve with agent vs DMSO control, same agent concentrations as E5
[11] = read-out: half maximal effective concentration (EC50), CFTR activity

T2 sequence (P13569 whole entry): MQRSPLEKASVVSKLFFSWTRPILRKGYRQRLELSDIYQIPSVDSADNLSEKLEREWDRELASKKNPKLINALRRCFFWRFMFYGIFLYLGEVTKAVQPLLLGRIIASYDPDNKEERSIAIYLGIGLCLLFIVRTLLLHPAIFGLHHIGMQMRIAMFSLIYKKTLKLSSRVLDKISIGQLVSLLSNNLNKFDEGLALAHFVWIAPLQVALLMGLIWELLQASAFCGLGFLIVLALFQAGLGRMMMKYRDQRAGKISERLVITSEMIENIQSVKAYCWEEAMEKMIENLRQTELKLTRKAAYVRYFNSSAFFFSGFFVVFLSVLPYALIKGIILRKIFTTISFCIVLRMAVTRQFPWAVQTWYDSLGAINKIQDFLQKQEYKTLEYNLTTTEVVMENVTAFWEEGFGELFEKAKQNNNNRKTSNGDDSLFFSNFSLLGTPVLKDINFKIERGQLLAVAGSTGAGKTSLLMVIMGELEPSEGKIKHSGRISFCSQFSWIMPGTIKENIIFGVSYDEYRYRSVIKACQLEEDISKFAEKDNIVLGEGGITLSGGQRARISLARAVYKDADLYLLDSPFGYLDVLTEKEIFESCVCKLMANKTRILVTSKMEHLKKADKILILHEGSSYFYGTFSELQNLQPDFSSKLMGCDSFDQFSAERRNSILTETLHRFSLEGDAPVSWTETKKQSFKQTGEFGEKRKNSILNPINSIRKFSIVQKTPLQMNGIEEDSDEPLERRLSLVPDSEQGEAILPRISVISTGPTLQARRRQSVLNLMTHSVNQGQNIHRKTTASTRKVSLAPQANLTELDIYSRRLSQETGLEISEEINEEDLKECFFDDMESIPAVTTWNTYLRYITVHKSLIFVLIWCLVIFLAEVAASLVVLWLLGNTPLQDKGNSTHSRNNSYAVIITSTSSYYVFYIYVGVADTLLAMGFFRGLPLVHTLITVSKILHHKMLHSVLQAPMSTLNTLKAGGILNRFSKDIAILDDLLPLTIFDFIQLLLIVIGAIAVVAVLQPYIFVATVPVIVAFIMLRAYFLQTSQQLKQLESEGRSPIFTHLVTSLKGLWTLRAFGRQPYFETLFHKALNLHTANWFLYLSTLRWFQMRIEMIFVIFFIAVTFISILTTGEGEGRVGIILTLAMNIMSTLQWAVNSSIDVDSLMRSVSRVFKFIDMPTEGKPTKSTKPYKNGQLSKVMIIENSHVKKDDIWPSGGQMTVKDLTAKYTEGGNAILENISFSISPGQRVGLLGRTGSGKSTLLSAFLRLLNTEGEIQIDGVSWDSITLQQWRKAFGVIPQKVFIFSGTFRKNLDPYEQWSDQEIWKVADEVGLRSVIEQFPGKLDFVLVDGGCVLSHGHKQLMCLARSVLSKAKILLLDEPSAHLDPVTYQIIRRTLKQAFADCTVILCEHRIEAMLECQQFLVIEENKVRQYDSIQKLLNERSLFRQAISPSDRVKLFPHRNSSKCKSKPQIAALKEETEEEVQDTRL

Structure (SMILES)	IC50 (ABCC4 [2]) [nM]	IC50 (ABCC4 [3]) [nM]	EC50 (CFTR [1]; [11]) [nM]	EC50 (CFTR [1]; value in picture, no unit, read-out: EC50, CFTR activity (Figure 3)) [nM]	AUC of CFTR activity time course compared with VX-770 alone (CFTR [6])	max peak of CFTR activity compared with VX-770 alone (CFTR [6])	Baseline of concentration–response curve, CFTR activity (CFTR [1]; [7])	EC50 of concentration–response curve, CFTR activity (CFTR [1]; [7])	Emax of concentration–response curve, CFTR activity (CFTR [1]; [7])	AUC of concentration–response curve, CFTR activity (CFTR [1]; [8])	Baseline of concentration–response curve, CFTR activity (CFTR [1]; [9])	EC50 of concentration–response curve, CFTR activity (CFTR [1]; [9])	Emax of concentration–response curve, CFTR activity (CFTR [1]; [9])	AUC of concentration–response curve, CFTR activity (CFTR [1]; [10])	maximal degree of change for CFTR activity (CFTR [1]; Calu-3, ISO compared with FSK, inducers alone)	CFTR activation (CFTR [4])	CFTR potentiation beyond max FSK stimulation (CFTR [5])
Cn1c(CSc2nc3ccccc3s2)n[nH]c1=S [Ceefourin-1]	700	4800					No combination of ABCC4 inhibitor and cAMP-elevating agent changed CFTR activity	No combination of ABCC4 inhibitor and cAMP-elevating agent changed CFTR activity	No combination of ABCC4 inhibitor and cAMP-elevating agent changed CFTR activity	No combination of ABCC4 inhibitor and cAMP-elevating agent changed CFTR activity	No combination of ABCC4 inhibitor and cAMP-elevating agent changed CFTR activity	No combination of ABCC4 inhibitor and cAMP-elevating agent changed CFTR activity	No combination of ABCC4 inhibitor and cAMP-elevating agent changed CFTR activity	No combination of ABCC4 inhibitor and cAMP-elevating agent changed CFTR activity			
CC(C)Cn1c(=O)n(C)c(=O)c2[nH]cnc21 [IBMX]										Significant increases	significant increases			Significant increases			
CN(C)C(=O)CCSC(SCCC(=O)O)c1cccc(/C=C/c2ccc3ccc(Cl)cc3n2)c1 (stereo not drawn) [MK-571]							No combination of ABCC4 inhibitor and cAMP-elevating agent changed CFTR activity	No combination of ABCC4 inhibitor and cAMP-elevating agent changed CFTR activity	No combination of ABCC4 inhibitor and cAMP-elevating agent changed CFTR activity	No combination of ABCC4 inhibitor and cAMP-elevating agent changed CFTR activity	No combination of ABCC4 inhibitor and cAMP-elevating agent changed CFTR activity	No combination of ABCC4 inhibitor and cAMP-elevating agent changed CFTR activity	No combination of ABCC4 inhibitor and cAMP-elevating agent changed CFTR activity	No combination of ABCC4 inhibitor and cAMP-elevating agent changed CFTR activity			
COc1ccc(C2CNC(=O)C2)cc1OC1CCCC1 (stereo not drawn) [Rolipram]							not different	not different	not different	not FSK	not different	not different	not different	significant increases			

Further lines, with some results ahead:

IC50 (ABCC4 [2]) [nM]	IC50 (ABCC4 [3]) [nM]	EC50 (CFTR [1]; [11]) [nM]	EC50 (CFTR [1]; value in picture, no unit, read-out: EC50, CFTR activity (Figure 3)) [nM]	AUC of CFTR activity time course compared with VX-770 alone (CFTR [6])	max peak of CFTR activity compared with VX-770 alone (CFTR [6])	Structure (SMILES)	Baseline of concentration–response curve, CFTR activity (CFTR [1]; [7])	EC50 of concentration–response curve, CFTR activity (CFTR [1]; [7])	Emax of concentration–response curve, CFTR activity (CFTR [1]; [7])	AUC of concentration–response curve, CFTR activity (CFTR [1]; [8])	Baseline of concentration–response curve, CFTR activity (CFTR [1]; [9])	EC50 of concentration–response curve, CFTR activity (CFTR [1]; [9])	Emax of concentration–response curve, CFTR activity (CFTR [1]; [9])	AUC of concentration–response curve, CFTR activity (CFTR [1]; [10])	maximal degree of change for CFTR activity (CFTR [1]; Calu-3, ISO compared with FSK, inducers alone)	CFTR activation (CFTR [4])	CFTR potentiation beyond max FSK stimulation (CFTR [5])
		190				C=C[C@@]1(C)CC(=O)[C@]2(O)[C@@]3(C)[C@@H](O)CCC(C)(C)[C@@H]3[C@H](O)[C@H](OC(C)=O)[C@@]2(C)O1 [FSK, forskolin]											
		70	66			CC(C)NCC(O)c1ccc(O)c(O)c1 (stereo not drawn) [ISO, isoproterenol]									greater		
				significantly greater than VX-770 alone	significantly greater than VX-770 alone	O=C(Nc1c(Cl)cncc1Cl)c1ccc(OC(F)F)c(OCC2CC2)c1 [Roflumilast]	not different	not different	not different	not FSK	not different	not different	not different	significant increases		led to CFTR activation	did not potentiate CFTR activity beyond the max stimulation that resulted from the addition of FSK
